According to PMC2362650, “Phase I and pharmacokinetic study of the topoisomerase II catalytic inhibitor fostriecin” (British Journal of Cancer, 1999):
Where “and” joins values, the source holds several entries; their conditions need not be identical. Equal entries are not always repeated. Where two headings read alike, the source gives them in different places.

Experiment: Plasma and urine pharmacokinetics (HPLC-UV) in patients after 60-min IV infusion
Type: in vivo, human
Conditions: for half-life / Cmax / AUC / MRT: human, plasma, intravenous; for Cmax: observed value
Text: Fostriecin (CI-920) is a topoisomerase (topo) II catalytic activity inhibitor (Boritzki et al, 1988) (Figure 1). This novel class of topo II-targeting drugs is considered of potential value for treatment of patients with tumours resistant to classic topo II poisons, including anthracyclines and podophyllotoxins (Cummings and Smyth, 1993). The nuclear enzyme topo II is essential for the regulation of DNA conformation (reviewed in Osheroff et al, 1991). Central in its action is the formation of a complex with DNA. Stabilization of this complex by topo II poisons induces DNA damage and cell death (Froelich-Ammon and Osheroff, 1995). Decreased complex formation due to decreased topo II levels is considered to be an important mechanism of tumour-resistance to topo II poisons (Beck and Danks, 1991). The topo II catalytic inhibitor fostriecin is expected to have increased activity against tumour cells with low topo II levels and this was confirmed in in vitro studies (De Jong et al, 1991). […] Because of increased toxi- city of fostriecin in dogs compared to mice, a dose below one-third of the one-tenth mouse equivalent LD10, 2 mg m-2 day-1, was chosen as starting dose in humans (Clinical Brochure Fostriecin, 1991). […] We also performed an analysis of the human pharmacokinetics of fostriecin and ex vivo experiments to investigate if the plasma drug concentrations achieved were sufficient to inhibit a tenipo- side-resistant tumour cell line. The maximum tolerated dose (MTD) of fostriecin could not be established because drug supply was stopped prematurely. However, results of this study may provide a basis for continued clinical development of this agent. PATIENTS AND METHODS Patient selection, drug administration and evaluation Patient eligibility criteria were: histologically confirmed diagnosis of a solid tumour, no longer amenable to established forms of treatment; age 18-75 years; Eastern Cooperative Oncology Group (ECOG) performance status 2; life expectancy 12 weeks; no Phase I and pharmacokinetic study of the topoisomerase II catalytic inhibitor fostriecin RS de Jong1, NH Mulder1, DRA Uges2, DTh Sleijfer1, FJP Hoppener4, HJM Groen3, PHB Willemse1, WTA van der Graaf1 and EGE de Vries1 Departments of 1Medical Oncology, 2Pharmacy and Toxicology, and 3Pulmonary Diseases, University Hospital Groningen, The Netherlands; 4EORTC New Drug Development Office, Amsterdam, The Netherlands Summary We conducted a phase I and pharmacokinetic study of the topoisomerase II catalytic inhibitor fostriecin. Fostriecin was administered intravenously over 60 min on days 1-5 at 4-week intervals. Dose was escalated from 2 mg m-2 day-1 to 20 mg m-2 day-1 in 20 patients. Drug pharmacokinetics was analysed with high performance liquid chromatography with UV-detection. Plasma collected during drug administration was tested in vitro for growth inhibition of a teniposide-resistant small-cell lung cancer (SCLC) cell line. The predominant toxicities were elevated liver transaminases (maximum common toxicity criteria (CTC) grade 4) and serum creatinine (maximum CTC grade 2). […] Duration of elevated alanine-amino transferase (ALT) was dose-limiting in one patient at 20 mg m-2. Other frequent toxicities were grade 1-2 nausea/vomiting, fever and mild fatigue. […] A metabolite, most probably dephosphorylated fostriecin, was detected in plasma and urine. […] However, further escalation seems possible and is warranted to achieve potentially effective drug levels. Fostriecin has a short plasma half-life and longer duration of infusion should be considered. […]

[1] = patient no. 1, 2 mg m-2, day 1 course 1, one-compartment model
[2] = patient no. 3, 2 mg m-2, day 1 course 1, one-compartment model
[3] = patient no. 4, 2 mg m-2, day 1 course 1, one-compartment model
[4] = patient no. 5, 4 mg m-2, day 1 course 1, one-compartment model
[5] = patient no. 6, 4 mg m-2, day 1 course 1, one-compartment model
[6] = patient no. 7, 4 mg m-2, day 1 course 1, two-compartment model
[7] = patient no. 11, 6.6 mg m-2, day 1 course 1, two-compartment model
[8] = patient no. 12, 6.6 mg m-2, day 1 course 1, two-compartment model
[9] = patient no. 13, 10 mg m-2, day 1 course 1, two-compartment model
[10] = patient no. 15, 10 mg m-2, day 1 course 1, two-compartment model
[11] = patient no. 16, 12.2 mg m-2, day 1 course 1, two-compartment model
[12] = patient no. 18, 12.2 mg m-2, day 1 course 1, two-compartment model
[13] = patient no. 19, 20 mg m-2, sampling on day 1 of course 2, two-compartment model
[14] = patient no. 20, 20 mg m-2, day 1 course 1, two-compartment model

What does the source list for C[C@@](O)(/C=C/[C@H]1CC=CC(=O)O1)[C@@H](C[C@@H](O)\C=C/C=C\C=C\CO)OP(=O)(O)O [fostriecin]?
half-life (12.2 mg, patient no. 16, 12.2 mg m-2, day 1 course 1, two-compartment model, read-out: t1/2 (terminal) (converted)): 70.2 min; Cmax (12.2 mg, patient no. 18, 12.2 mg m-2, day 1 course 1): 2790 ng/mL; AUC (12.2 mg, patient no. 18, 12.2 mg m-2, day 1 course 1, two-compartment model): 5320 ng·h/mL; MRT (12.2 mg, patient no. 18, 12.2 mg m-2, day 1 course 1, two-compartment model, read-out: MRT): 217 min; half-life (12.2 mg, patient no. 18, 12.2 mg m-2, day 1 course 1, two-compartment model, read-out: t1/2 (initial) (converted)): 27.6 min; half-life (12.2 mg, patient no. 18, 12.2 mg m-2, day 1 course 1, two-compartment model, read-out: t1/2 (terminal) (converted)): 306 min; Cmax (20 mg, patient no. 19, 20 mg m-2, sampling on day 1 of course 2): 3850 ng/mL; AUC (20 mg, patient no. 19, 20 mg m-2, sampling on day 1 of course 2, two-compartment model): 4450 ng·h/mL; MRT (20 mg, patient no. 19, 20 mg m-2, sampling on day 1 of course 2, two-compartment model, read-out: MRT): 22.8 min; half-life (20 mg, patient no. 19, 20 mg m-2, sampling on day 1 of course 2, two-compartment model, read-out: t1/2 (initial) (converted)): 1.8 min; half-life (20 mg, patient no. 19, 20 mg m-2, sampling on day 1 of course 2, two-compartment model, read-out: t1/2 (terminal) (converted)): 32.4 min; Cmax (20 mg, patient no. 20, 20 mg m-2, day 1 course 1): 6350 ng/mL; AUC (20 mg, patient no. 20, 20 mg m-2, day 1 course 1, two-compartment model): 9960 ng·h/mL; MRT (20 mg, patient no. 20, 20 mg m-2, day 1 course 1, two-compartment model, read-out: MRT): 49.8 min; half-life (20 mg, patient no. 20, 20 mg m-2, day 1 course 1, two-compartment model, read-out: t1/2 (initial) (converted)): 0.6 min; half-life (20 mg, patient no. 20, 20 mg m-2, day 1 course 1, two-compartment model, read-out: t1/2 (terminal) (converted)): 45.6 min; half-life (two-compartment model, 95% CI 0-0.76 h, read-out: mean plasma half-life (initial) (converted)): 21.6 min; MRT (two-compartment model, 95% CI 0.41-1.97 h, read-out: mean residence time (MRT)): 71.4 min; half-life (two-compartment model, 95% CI 0.41-2.61 h, read-out: mean plasma half-life (terminal) (converted)): 90.6 min; renal excretion as share of drug elimination (mean, patient nos 12-20, 95% CI 10-17.6%): 14.6% and 15%; Cl [1]: 5.14 l h-1 m-2; Vd [1]: 4.44 l m-2; Cl [2]: 2.40 l h-1 m-2; Vd [2]: 1.86 l m-2; Cl [3]: 4.11 l h-1 m-2; Vd [3]: 2.10 l m-2; Cl [4]: 2.81 l h-1 m-2; Vd [4]: 2.03 l m-2; Cl [5]: 3.05 l h-1 m-2; Vd [5]: 2.03 l m-2; Cl [6]: 2.31 l h-1 m-2; Vd [6]: 6.76 l m-2; Cl [7]: 4.06 l h-1 m-2; Vd [7]: 2.75 l m-2; Cl [8]: 2.63 l h-1 m-2; Vd [8]: 4.64 l m-2; Cl [9]: 2.97 l h-1 m-2; Vd [9]: 3.98 l m-2; Cl [10]: 2.66 l h-1 m-2; Vd [10]: 5.34 l m-2; Cl [11]: 2.84 l h-1 m-2; Vd [11]: 4.80 l m-2; Cl [12]: 2.32 l h-1 m-2; Vd [12]: 17.09 l m-2; Cl [13]: 4.52 l h-1 m-2; Vd [13]: 3.39 l m-2; Cl [14]: 1.83 l h-1 m-2; Vd [14]: 2.01 l m-2; mean volume of distribution (Vd) (two-compartment model, 95% CI 2.16-9.11): 5.64 l m-2; mean Cl (apparent total body clearance) (two-compartment model, 95% CI 2.24-3.57): 2.90 l h-1 m-2; mean Cl (apparent total body clearance) (unit conversion of 2.90 l h-1 m-2): 48.3 ml min-1 m-2
